# Reference: patent US4864021A, “5-fluorouracil derivatives” (Otsuka Pharmaceutical Co., Ltd., priority 1984, dated 1989)
# Read-outs that look alike come from different tables or passages of the source.
# Experiments:
# [1] = Acute toxicity, oral, 14 days observation, Litchfield-Wilcoxon method; conditions: mouse, in vivo, 5-week-old ICR male mice
# Procedure: The compounds of the present invention prepared in Examples 2 and 54 were each orally administered to 5-week-old ICR male mice (8 mice in each group) to check the mice for the symptoms, change of weight and mortality by observing the mice for 14 consecutive days after the administration of the compounds. The LD50 value was determined from the mortality by the Litchfield-Wilcoxon method with the results shown below in Table 3.
# Sarcoma-180 = assay: Antitumor test: Sarcoma-180 subcutaneously transplanted in ICR mice, oral once a day for 7 days, tumor weight on 10th day (50% tumor inhibition dose); assay type: in vivo; conditions: Mus musculus, 240 h, once a day for 7 consecutive days, read-out: ED50 (50% tumor inhibition dose, T/C is 0.5)
# Procedure: (a) Sarcoma-180 subcultured in an ascites of ICR mice was diluted with a physiological saline solution and subcutaneously transplated into the backs of ICR mice in an amount of 2×10^7 each. Twenty-four hours after the transplantation, a test compound suspended in a 5% solution of gum arabic was orally administered to each of mice once a day for 7 consecutive days.
# The solid tumor was extirpated from under the dorsal skin of mice on the 10th day after the transplantation to measure the weight of the tumor. There was determined the ratio (T/C) of the weight of tumor (T) cut out from the group of mice treated with the test compound to the weight of tumor (C) from the group of mice not treated therewith. The 50% tumor inhibition dose (ED50 value) in which T/C is 0.5 was determined from the dose-response curve of dosage and the ratio (T/C).
# [2] = Table 1, Sarcoma-180 s.c. in ICR mice, tumor weight on 10th day
# [3] = Table 2, same manner as in (a): Sarcoma-180 s.c. in ICR mice
SMILES,LD50 at 336 h [1],ED50 (Sarcoma-180; [2]),ED50 (Sarcoma-180; [3])
"O=c1[nH]c(=O)n([C@H]2C[C@H](OCc3ccccc3)[C@@H](CO)O2)cc1F [Example 2, 3'-O-benzyl-2'-deoxy-5-fluorouridine]",> 1000 mg/kg,–,–
O=c1[nH]c(=O)n([C@H]2C[C@H](OCc3ccccc3F)[C@@H](CO)O2)cc1F [Example 2],–,8 mg/kg,–
"CC(=O)OC[C@H]1O[C@@H](n2cc(F)c(=O)[nH]c2=O)C[C@@H]1OCc1ccccc1 [Example 54, 3'-O-benzyl-5'-O-acetyl-2'-deoxy-5-fluorouridine]",> 1000 mg/kg,15 mg/kg,–
"CC(=O)OC[C@H]1O[C@@H](n2cc(F)c(=O)n(C(=O)c3cccc(C(=O)Oc4cc(OC(=O)c5ccccc5)c(Cl)cn4)c3)c2=O)C[C@@H]1OC(C)=O [Example 197, 3-[3-(4-benzoyloxy-5-chloro-2-pyridyloxycarbonyl)benzoyl]-2'-deoxy-3',5'-di-O-acetyl-5-fluorouridine]",–,–,7 mg/kg
"CC(=O)Oc1cc(OC(=O)c2cccc(C(=O)n3c(=O)c(F)cn([C@@H]4O[C@H](C)[C@@H](OC(C)=O)[C@H]4OC(C)=O)c3=O)c2)c(Cl)cn1 [Example 201, 3-[3-(2-acetoxy-5-chloro-4-pyridyloxycarbonyl)benzoyl]-5'-deoxy-2',3'-di-O-acetyl-5-fluorouridine]",–,–,12 mg/kg
"CC(=O)OC[C@H]1O[C@@H](n2cc(F)c(=O)n(C(=O)c3cccc(C(=O)Oc4cc(OC(=O)c5ccccc5)c(Cl)cn4)c3)c2=O)[C@H](OC(C)=O)[C@@H]1OC(C)=O [Example 202, 3-[3-(4-benzoyloxy-5-chloro-2-pyridyloxycarbonyl)benzoyl]-5-fluoro-2',3',5'-tri-O-acetyluridine]",–,–,22 mg/kg
"O=C(Oc1cc(OC(=O)c2ccccc2)c(Cl)cn1)c1cccc(C(=O)n2c(=O)c(F)cn([C@H]3C[C@H](OCc4ccccc4)[C@@H](COCc4ccccc4)O3)c2=O)c1 [Example 208, 3-[3-(4-benzoyloxy-5-chloro-2-pyridyloxycarbonyl)benzoyl]-2'-deoxy-3',5'-di-O-benzyl-5-fluorouridine]",–,–,5 mg/kg
"CCOCn1cc(F)c(=O)n(C(=O)c2cccc(C(=O)Oc3nc(OC(=O)c4ccccc4)ccc3C#N)c2)c1=O [Example 227, 3-[3-(3-cyano-6-benzoyloxy-2-pyridyloxycarbonyl)benzoyl]-1-ethoxymethyl-5-fluorouracil]",–,–,5 mg/kg
O=c1[nH]c(=O)n([C@H]2C[C@H](OCc3ccccc3)[C@@H](CO)O2)cc1F [drawing 480],–,8 mg/kg,–
